Experiment [1] has as its target Lysine-specific histone demethylase 1A (Homo sapiens, UniProt O60341).
Description: Inhibition of recombinant human LSD1 (157 to 852 residues) expressed in Escherichia coli BL21(DE3) using H3K4me2 as substrate preincubated for 1 hr followed by substrate addition by fluorescence assay
Experiment [2] concerns MGC-803. The experiment is described as follows: cells. The following applies: Homo sapiens, MGC-803, read-out: GI.
Description: Cytotoxicity against human MGC803 cells assessed as growth inhibition at 10 uM by MTT assay relative to control
In experiment [3] the test system is ECa-109 cell line. The experiment can be described thus: cells. The note with it: Homo sapiens, ECa-109, read-out: GI.
Description: Cytotoxicity against human EC109 cells assessed as growth inhibition at 10 uM by MTT assay relative to control
Experiment [4] concerns A549. The experiment can be described thus: cells. The following applies: Homo sapiens, A549, read-out: GI.
Description: Cytotoxicity against human A549 cells assessed as growth inhibition at 10 uM by MTT assay relative to control
Experiment [5] concerns PC-9. The experiment can be described thus: cells. The following applies: Homo sapiens, PC-9, read-out: GI.
Description: Cytotoxicity against human PC9 cells assessed as growth inhibition at 10 uM by MTT assay relative to control
Experiment [6] deals with MGC-803. The experiment can be described thus: cells. The note with it: Homo sapiens.
Description: Cytotoxicity against human MGC803 cells assessed as growth inhibition by MTT assay
Experiment [7] concerns ECa-109 cell line. The experiment can be described thus: cells. The note with it: Homo sapiens.
Description: Cytotoxicity against human EC109 cells assessed as growth inhibition by MTT assay
In experiment [8] the test system is A549. The experiment is described as follows: cells. The following applies: Homo sapiens.
Description: Cytotoxicity against human A549 cells assessed as growth inhibition by MTT assay
The subject of experiment [9] is PC-9. The experiment is described as follows: cells. The following applies: Homo sapiens.
Description: Cytotoxicity against human PC9 cells assessed as growth inhibition by MTT assay

Structures are written as SMILES. Where only a bound is given, the exact number is not on record here.

One may read the IC50 as the point on the concentration scale where inhibition reaches its midpoint. A high value points to weaker potency in that assay. For the compound `Cc1cc(NCCc2c[nH]c3ccccc23)n2nc(SCc3ccccc3)nc2n1`, the IC50 in experiment [1] is more than 10 µM. Further, the inhibition of growth at 10 µM in experiment [2] turned out to be 34.2%; in experiment [3] it was 7%; in experiment [4] it was 43.9%; in experiment [5] it was 24%.
On to `O=c1[nH]cc(F)c(=O)[nH]1` [FLUOROURACIL], for which the IC50 in [6] stood at 10.1 µM; in [7], 26 µM; in [8], 14 µM; in [9], 1.99 µM.
With `Cc1ccc(Nc2cc(C)nc3nc(SCc4ccccc4)nn23)cc1`, the IC50 in [1] is more than 10 µM. For the same compound, the inhibition of growth at 10 µM in experiment [2] stood at 26%; in experiment [3], 44.7%; in experiment [4] it was 33.7%; in experiment [5], 30.2%.
For `Cc1cc(NNC(=O)c2cnccn2)n2nc(SCc3ccccc3)nc2n1`, the IC50 came out at 1.19 µM in experiment [1] and 12.7 µM in [9]. Besides, the inhibition of growth at 10 µM in experiment [2] is 35.3%; in experiment [3], 23.3%; in experiment [4] it was 40.9%; in [5] it was 63.2%.
Regarding `Cc1cc(NCCCn2ccnc2)n2nc(SCc3ccccc3)nc2n1`, the IC50 was more than 10 µM in [1], 16.1 µM in experiment [8] and 12.3 µM in [9]. Further, the inhibition of growth at 10 µM is 26.2% in experiment [2], 12.8% in experiment [3], 50.2% in [4] and 47.7% in [5].
With `Cc1cc(OCCN2CCCC2)n2nc(SCc3ccccc3)nc2n1`, the IC50 is more than 10 µM in [1] and 22.8 µM in experiment [8]. In addition, the inhibition of growth at 10 µM in experiment [2] worked out at 28.8%; in experiment [3], 11.4%; in experiment [4], 49.8%; in experiment [5] it was 43.6%.
With `Cc1cc(Nc2ccc(F)cc2)n2nc(SCc3ccccc3)nc2n1`, in [1], the IC50 is more than 10 µM. The inhibition of growth at 10 µM in experiment [2] was 19.7%; in experiment [3], 37.6%; in experiment [4], 41.8%; in experiment [5], 43.5%.
Taken in the same sequence, the figures for `Cc1cc(Nc2ccc(C(=O)O)cc2)n2nc(SCc3nc4ccccc4[nH]3)nc2n1` were more than 10 µM, 0.4%, 4.5%, 5.6% and 11.9%.
Turning to `Cc1cc(NCCCO)n2nc(SCc3ccccc3)nc2n1`, the IC50 in experiment [1] is more than 10 µM; in [8], 8.85 µM; in experiment [9], 10.7 µM. Moreover, the inhibition of growth at 10 µM in experiment [2] came to 33.3%; in [3], 6.3%; in experiment [4] it was 53.7%; in [5] it was 51.4%.
As for `Cc1cc(Nc2ccc(C#N)cc2)n2nc(SCc3nc4ccccc4[nH]3)nc2n1`, the IC50 in experiment [1] was more than 10 µM; in [8], 13.9 µM. Moreover, the inhibition of growth at 10 µM came out at 19.3% in experiment [2], 26.3% in experiment [3], 52.3% in experiment [4] and 41.9% in experiment [5].
Regarding `Cc1cc(N2CCOCC2)n2nc(SCc3ccccc3)nc2n1`, the IC50 in experiment [1] was more than 10 µM. Besides, the inhibition of growth at 10 µM in [2] amounted to 31%; in [3] it was 10.6%; in [4], 45.4%; in experiment [5], 27.3%.
Taken in the same sequence, the figures for `Cc1cc(N2CCN(CCO)CC2)n2nc(SCc3ccccc3)nc2n1` were more than 10 µM, 23.8%, 5.9%, 42.1% and 14.9%.
In the same order, the values of `Cc1ccc(Nc2cc(C)nc3nc(SCc4nc5ccccc5[nH]4)nn23)cc1` are more than 10 µM, 22.9%, 43.1%, 35.1% and 36.9%.
For the compound `COc1cc(Nc2cc(C)nc3nc(SCc4ccccc4)nn23)cc(OC)c1OC`, in [1], the IC50 is more than 10 µM. The inhibition of growth at 10 µM was 32.8% in [2], 41.6% in experiment [3], 37.9% in experiment [4] and 13.5% in [5].
The compound `Cc1cc(Nc2ccc(Cl)cc2)n2nc(SCc3nc4ccccc4[nH]3)nc2n1` yielded an IC50 in [1] of more than 10 µM. For the same compound, the inhibition of growth at 10 µM in [2] is 16.8%; in experiment [3], 41.2%; in experiment [4], 34.9%; in experiment [5], 33.2%.
For the compound `Cc1cc(N2CCC(N3CCCCC3)CC2)n2nc(SCc3ccccc3)nc2n1`, the results for the IC50 in experiment [1] and in experiment [8] were more than 10 µM and 8.87 µM, respectively. Besides, the inhibition of growth at 10 µM in experiment [2] worked out at 32.8%; in experiment [3], 0.3%; in experiment [4], 56.5%; in experiment [5] it was 35.6%.
Regarding `Cc1cc(Nc2ccccc2)n2nc(SCc3ccccc3)nc2n1`, the IC50 is more than 10 µM in [1] and 16.4 µM in experiment [8]. Further, the inhibition of growth at 10 µM in experiment [2] was found to be 35%; in experiment [3], 12.9%; in [4], 50.2%; in experiment [5], 40.2%.
For the compound `Cc1cc(NNC(=O)c2cnccn2)n2nc(SCc3nc4ccccc4[nH]3)nc2n1`, the IC50 in [1] came to 0.557 µM; in experiment [8] it was 10.3 µM; in experiment [9] it was 12.3 µM. Further, the inhibition of growth at 10 µM stood at 8.6% in experiment [2], 35.5% in experiment [3], 65.2% in experiment [4] and 52.5% in experiment [5].
For `O=C(O)c1ccc(CN2CCC(CN[C@@H]3C[C@H]3c3ccccc3)CC2)cc1` [GSK2879552], the figures for the IC50 in [1], in experiment [6] and in experiment [7] were 0.024 µM, more than 50 µM and more than 50 µM, respectively.
With `Cc1cc(N)n2nc(SCc3ccccc3)nc2n1`, the IC50 in experiment [1] is more than 10 µM; in experiment [8], 9.74 µM; in experiment [9], 8.14 µM. The inhibition of growth at 10 µM in [2] was found to be 32.3%; in experiment [3], 4.7%; in [4], 57.3%; in experiment [5] it was 48.3%.
On to `Cc1cc(Nc2ccc(C(=O)O)cc2)n2nc(SCc3ccccc3)nc2n1`, for which, in [1], the IC50 is more than 10 µM. Moreover, the inhibition of growth at 10 µM in [2] was found to be 26.7%; in experiment [3], 14.3%; in experiment [4] it was 34.6%; in experiment [5], 30.7%.
Taken in the same sequence, the figures for `Cc1cc(Nc2ccccc2)n2nc(SCc3nc4ccccc4[nH]3)nc2n1` were more than 10 µM, 17.9%, 39.9%, 38% and 31.6%.
`Cc1cc(Nc2ccc(Br)cc2)n2nc(SCc3nc4ccccc4[nH]3)nc2n1` yielded an IC50 in experiment [1] of more than 10 µM. The inhibition of growth at 10 µM came out at 36.7% in experiment [2], 43.8% in experiment [3], 35.2% in [4] and 36.4% in experiment [5].
As to `Cc1cc(NCCCN2CCOCC2)n2nc(SCc3ccccc3)nc2n1`, the IC50 is more than 10 µM in experiment [1], 17 µM in [8] and 15 µM in experiment [9]. For the same compound, the inhibition of growth at 10 µM in experiment [2] came to 24.9%; in experiment [3], 9.3%; in experiment [4] it was 49.2%; in experiment [5] it was 51.9%.
Consider `Cc1cc(Nc2cccc3c2CN(C2CCC(=O)NC2=O)C3=O)n2nc(SCc3nc4ccccc4[nH]3)nc2n1` (stereo unspecified), for which the IC50 in experiment [1] is more than 10 µM; in [8] it was 19.8 µM; in experiment [9], 15 µM. The inhibition of growth at 10 µM amounted to 11.4% in [2], 32.2% in experiment [3], 48.2% in [4] and 52.4% in experiment [5].
On to `COc1cc(Nc2cc(C)nc3nc(SCc4nc5ccccc5[nH]4)nn23)cc(OC)c1OC`, for which the IC50 in [1] was more than 10 µM; in experiment [8], 18 µM. Besides, the inhibition of growth at 10 µM was determined as 28% in experiment [2], 34.1% in [3], 52.4% in experiment [4] and 42.9% in experiment [5].
`Cc1cc(N2CCNCC2)n2nc(SCc3ccccc3)nc2n1` had an IC50 in experiment [1] of more than 10 µM. In addition, the inhibition of growth at 10 µM in experiment [2] turned out to be 32.4%; in [3] it was 23.9%; in [4], 41.4%; in experiment [5] it was 29.3%.
Take `Cc1cc(Nc2ccc(F)cc2)n2nc(SCc3nc4ccccc4[nH]3)nc2n1`: the IC50 in experiment [1] was more than 10 µM. In addition, the inhibition of growth at 10 µM in [2] is 19.2%; in experiment [3], 39.7%; in experiment [4] it was 36.6%; in experiment [5] it was 27.6%.
For `CCC1(c2ccc(Nc3cc(C)nc4nc(SCc5nc6ccccc6[nH]5)nn34)cc2)CCC(=O)NC1=O` (stereo unspecified), the half-inhibitory concentration (IC50) in experiment [1] was more than 10 µM; in experiment [8], 17.5 µM; in experiment [9], 12.2 µM. The inhibition of growth at 10 µM in experiment [2] is 1.1%; in experiment [3] it was 38.2%; in experiment [4], 49.2%; in [5] it was 47.9%.
Regarding `Cc1cc(Nc2ccc(C(=O)/C=C/c3cccs3)cc2)n2nc(SCc3nc4ccccc4[nH]3)nc2n1`, the IC50 in [1] was more than 10 µM; in [6], 7.88 µM; in [7], 10.6 µM; in [8] it was 9.9 µM; in experiment [9] it was 11 µM. The inhibition of growth at 10 µM amounted to 29.6% in [2], 38.3% in experiment [3], 51.1% in [4] and 40.4% in experiment [5].

For the origin of these results see ChEMBL document CHEMBL4041507, “Design, synthesis and biological evaluation of [1,2,4]triazolo[1,5-a]pyrimidines as potent lysine specific demethylase 1 (LSD1/KDM1A) inhibitors” (Eur J Med Chem, 2017).
